In patent US20250221998A1, “DISCOVERY OF COVALENT EGFR INHIBITOR THROUGH CYSTEINE 775” (Dana-Farber Cancer Institute, Inc., priority 2022, published 2025) one finds GI50 data, which are given here for 28 compounds.

In assay [1] the target is EGFR L858R/C797S Ba/F3 cells (Homo sapiens, UniProt P00533, C797S/L858R, cells depend on it). The assay is described as follows: Ba/F3 cell proliferation (Cell Titer Glo), EGFR L858R/C797S. It is filed as cell-based, murine. Particulars: 72 hours exposure, read-out: L858R/C797S (μM), inhibitory activity against EGFR mutants. The method, boiled down:
(§1)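 Ba/F3 cells stably expressing retrovirally transduced EGFR L858R, L858R/C797S or L858R/C775S, puromycin-selected. Compound exposure 72 hours in triplicate; viability by Cell Titer Glo ATP luminescence.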
(Cellular ATP, detected with luciferase, serves as a proxy for viable cell number.)

For assay [2], the target named is EGFR mutant L858R Ba/F3 cells (Homo sapiens, UniProt P00533, L858R, cells depend on it). The assay is described as follows: Ba/F3 cell proliferation (Cell Titer Glo), EGFR L858R. The assay is classed as cell-based, murine. To be noted: 72 hours exposure, read-out: L858R BaF3 (μM), inhibitory activity against EGFR mutants. The method, boiled down:
as §1

Chain of EGFR L858R/C797S Ba/F3 cells (P00533 whole entry C797S/L858R): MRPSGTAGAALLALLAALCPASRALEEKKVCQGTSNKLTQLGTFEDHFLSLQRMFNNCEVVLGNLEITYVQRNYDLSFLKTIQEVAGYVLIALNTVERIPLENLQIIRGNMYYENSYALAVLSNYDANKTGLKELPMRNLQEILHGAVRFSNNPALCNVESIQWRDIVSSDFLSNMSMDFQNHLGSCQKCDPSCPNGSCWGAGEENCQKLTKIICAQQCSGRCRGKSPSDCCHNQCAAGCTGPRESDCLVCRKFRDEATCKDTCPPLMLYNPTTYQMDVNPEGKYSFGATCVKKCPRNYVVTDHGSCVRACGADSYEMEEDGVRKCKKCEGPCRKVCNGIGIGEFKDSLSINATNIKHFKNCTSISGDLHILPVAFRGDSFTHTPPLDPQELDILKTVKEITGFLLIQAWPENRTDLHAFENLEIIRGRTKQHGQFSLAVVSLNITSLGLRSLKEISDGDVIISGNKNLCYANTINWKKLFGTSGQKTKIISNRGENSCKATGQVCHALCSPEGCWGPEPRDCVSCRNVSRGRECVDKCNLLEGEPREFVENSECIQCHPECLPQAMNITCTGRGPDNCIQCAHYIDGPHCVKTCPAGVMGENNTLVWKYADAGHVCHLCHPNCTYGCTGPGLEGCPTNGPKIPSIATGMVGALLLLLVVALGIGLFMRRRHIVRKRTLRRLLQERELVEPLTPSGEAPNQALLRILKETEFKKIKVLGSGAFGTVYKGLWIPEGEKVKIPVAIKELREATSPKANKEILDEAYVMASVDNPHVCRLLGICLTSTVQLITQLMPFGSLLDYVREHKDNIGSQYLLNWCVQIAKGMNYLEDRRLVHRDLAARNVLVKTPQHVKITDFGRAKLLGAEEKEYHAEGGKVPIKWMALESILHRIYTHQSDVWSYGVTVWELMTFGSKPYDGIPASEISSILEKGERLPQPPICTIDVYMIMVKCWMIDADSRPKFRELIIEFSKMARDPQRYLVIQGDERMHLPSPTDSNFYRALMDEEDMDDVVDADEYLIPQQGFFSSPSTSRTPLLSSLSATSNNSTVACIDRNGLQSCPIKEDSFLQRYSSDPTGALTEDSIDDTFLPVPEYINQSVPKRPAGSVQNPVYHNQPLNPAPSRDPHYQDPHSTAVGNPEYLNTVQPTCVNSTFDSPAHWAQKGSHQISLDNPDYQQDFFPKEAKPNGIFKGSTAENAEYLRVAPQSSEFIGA
Chain of EGFR mutant L858R Ba/F3 cells (P00533 whole entry L858R): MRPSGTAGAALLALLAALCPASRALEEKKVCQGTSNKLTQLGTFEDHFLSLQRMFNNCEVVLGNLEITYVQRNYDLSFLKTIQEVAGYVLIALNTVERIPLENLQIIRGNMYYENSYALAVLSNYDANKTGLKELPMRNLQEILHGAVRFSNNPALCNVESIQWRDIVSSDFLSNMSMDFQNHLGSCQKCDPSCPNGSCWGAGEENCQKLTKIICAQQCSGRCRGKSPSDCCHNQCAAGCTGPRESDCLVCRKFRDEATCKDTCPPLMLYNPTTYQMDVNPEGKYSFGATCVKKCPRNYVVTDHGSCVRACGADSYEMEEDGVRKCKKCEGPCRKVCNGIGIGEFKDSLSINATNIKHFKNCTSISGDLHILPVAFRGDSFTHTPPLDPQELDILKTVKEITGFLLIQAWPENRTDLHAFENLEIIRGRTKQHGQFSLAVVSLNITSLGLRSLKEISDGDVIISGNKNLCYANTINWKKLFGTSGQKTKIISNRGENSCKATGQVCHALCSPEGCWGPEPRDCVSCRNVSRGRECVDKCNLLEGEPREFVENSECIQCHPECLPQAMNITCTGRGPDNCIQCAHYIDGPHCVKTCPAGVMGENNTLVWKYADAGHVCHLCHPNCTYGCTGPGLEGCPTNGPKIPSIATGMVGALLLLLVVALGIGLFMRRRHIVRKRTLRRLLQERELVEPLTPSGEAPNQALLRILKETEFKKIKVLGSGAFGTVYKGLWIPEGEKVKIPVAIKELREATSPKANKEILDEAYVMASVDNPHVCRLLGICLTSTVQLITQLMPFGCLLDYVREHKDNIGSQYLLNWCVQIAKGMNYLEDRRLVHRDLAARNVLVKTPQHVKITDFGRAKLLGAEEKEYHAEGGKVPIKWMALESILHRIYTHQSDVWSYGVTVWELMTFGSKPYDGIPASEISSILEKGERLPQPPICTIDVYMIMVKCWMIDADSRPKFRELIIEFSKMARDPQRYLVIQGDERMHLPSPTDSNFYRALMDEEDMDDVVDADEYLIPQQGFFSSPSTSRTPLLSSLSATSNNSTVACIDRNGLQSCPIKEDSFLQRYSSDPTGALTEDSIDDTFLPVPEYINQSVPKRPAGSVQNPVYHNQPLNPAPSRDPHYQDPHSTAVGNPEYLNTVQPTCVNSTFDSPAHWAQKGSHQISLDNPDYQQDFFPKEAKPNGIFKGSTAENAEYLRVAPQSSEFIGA

As to `C=CC(=O)N1CC(C)N(c2cc3cnc(Nc4ccc(N5CCN(C)CC5)cc4)nc3n(C)c2=O)C(C)C1` (centres unmarked) [Compound 022, 6-(2,6-dimethyl-4-prop-2-enoyl-piperazin-1-yl)-8-methyl-2-[4-(4-methylpiperazin-1-yl)anilino]pyrido[2,3-d]pyrimidin-7-one], the GI50 in assay [1] and in assay [2] was at least 2.5 µM each time.

Regarding `C=CC(=O)N1CCN(c2cc3cnc(Nc4ccnc(OC)c4)nc3n(C)c2=O)c2cccc(C)c21` [Compound 062], the GI50 in assay [1] and in assay [2] was at most 0.25 µM in each case.

Consider `C=CC(=O)N1CCC(c2cc3cnc(Nc4cnn(CCO)c4)nc3n(C)c2=O)c2ccccc21` (centres unmarked) [Compound 017, 2-[[1-(2-hydroxyethyl)pyrazol-4-yl]amino]-8-methyl-6-(1-prop-2-enoyl-3,4-dihydro-2H-quinolin-4-yl)pyrido[2,3-d]pyrimidin-7-one], for which the GI50 in assay [1] and in assay [2] was at most 0.25 µM throughout.

As to `C=CC(=O)N1CCN(c2cc3cnc(Nc4ccc(N5CCC(O)CC5)cc4)nc3n(C)c2=O)c2cccc(C)c21` [Compound 027, 2-[4-(4-hydroxy-1-piperidyl)anilino]-8-methyl-6-(5-methyl-4-prop-2-enoyl-2,3-dihydroquinoxalin-1-yl)pyrido[2,3-d]pyrimidin-7-one], the GI50 in assay [1] and in assay [2] was at most 0.25 µM throughout.

In the case of `C=CC(=O)N1CCN(c2cc3cnc(N)nc3n(-c3ccc(CN4CCN(C)CC4)cc3)c2=O)c2cccc(C)c21` [Compound 103, 2-amino-8-[4-[(4-methylpiperazin-1-yl)methyl]phenyl]-6-(5-methyl-4-prop-2-enoyl-2,3-dihydroquinoxalin-1-yl)pyrido[2,3-d]pyrimidin-7-one], the GI50 was in the range of 0.5 to 2.5 µM in assay [1] and 0.25 to 0.5 µM in assay [2].

For the compound `C=CC(=O)N1CCN(c2cc3cnc(N)nc3n([C@H]3CC[C@](C)(O)CC3)c2=O)c2cccc(C)c21` [Compound 087, 6-(4-acryloyl-5-methyl-3,4-dihydroquinoxalin-1 (2H)-yl)-2-amino-8-((1r,4r)-4-hydroxy-4-methylcyclohexyl)pyrido[2,3-d]pyrimidin-7 (8H)-one], the GI50 in assay [1] and in assay [2] was at most 0.25 µM each time.

On to `C=CC(=O)N1CCN(c2cc3cnc(Nc4ccc(OCCN(C)C)cc4)nc3n(C3CC(O)C3)c2=O)c2cccc(OC)c21` (centres unmarked) [Compound 077], for which the GI50 in assay [1] and in assay [2] was at most 0.25 µM in each case.

`C=CC(=O)N1CCN(c2cc3cnc(N)nc3n(-c3ccc(N4CCOCC4)cc3)c2=O)c2cccc(C)c21` [Compound 089, 2-amino-6-(5-methyl-4-prop-2-enoyl-2,3-dihydroquinoxalin-1-yl)-8-(4-morpholinophenyl)pyrido[2,3-d]pyrimidin-7-one]: the GI50 in assay [1] and in assay [2] was at most 0.25 µM each time.

Regarding `C=CC(=O)N1CCN(c2cc3cnc(Nc4cnn(CCS(C)(=O)=O)c4)nc3n(C)c2=O)c2cccc(C)c21` [Compound 041], the results for the GI50 in assay [1] and in assay [2] were 0.25 to 0.5 µM and at most 0.25 µM, respectively.

Take `C=CC(=O)N1CCN(c2cc3cnc(Nc4ccc(N5CCN(C)CC5)cc4)nc3n(C)c2=O)c2cccc(O)c21` [Compound 051, 6-(5-hydroxy-4-prop-2-enoyl-2,3-dihydroquinoxalin-1-yl)-8-methyl-2-[4-(4-methylpiperazin-1-yl)anilino]pyrido[2,3-d]pyrimidin-7-one]: the GI50 in assay [1] and in assay [2] was at most 0.25 µM in each case.

Take `C=CC(=O)N1CCN(c2cc3cnc(Nc4ccc(CC5CN(S(C)(=O)=O)C5)cc4)nc3n(C)c2=O)c2cccc(C)c21` [Compound 048, 8-methyl-6-(5-methyl-4-prop-2-enoyl-2,3-dihydroquinoxalin-1-yl)-2-[4-[(1-methylsulfonylazetidin-3-yl)methyl]anilino]pyrido[2,3-d]pyrimidin-7-one]: the GI50 in assay [1] and in assay [2] was at most 0.25 µM in each case.

Consider `C=CC(=O)N1CCN(c2cc3cnc(Nc4ccc(OCCN(C)C)cc4)nc3n(C)c2=O)c2cccc(OC)c21` [Compound 074], for which the GI50 in assay [1] and in assay [2] was at most 0.25 µM in each case.

`C=CC(=O)N1CCN(c2c(F)c3cnc(Nc4ccc(N5CCN(C)CC5)cc4)nc3n(C)c2=O)c2cccc(C)c21` [Compound 054, 5-fluoro-8-methyl-2-[4-(4-methylpiperazin-1-yl)anilino]-6-(5-methyl-4-prop-2-enoyl-2,3-dihydroquinoxalin-1-yl)pyrido[2,3-d]pyrimidin-7-one]: the GI50 in assay [1] and in assay [2] was at most 0.25 µM throughout.

Consider `C=CC(=O)N1CCN(c2cc3cnc(NC4CC4)nc3n(-c3ccc(N(C)CCOC)cc3)c2=O)c2cccc(C)c21` [Compound 100, 2-(cyclopropylamino)-8-[4-[2-methoxyethyl(methyl)amino]phenyl]-6-(5-methyl-4-prop-2-enoyl-2,3-dihydroquinoxalin-1-yl)pyrido[2,3-d]pyrimidin-7-one], for which the GI50 in assay [1] and in assay [2] was at most 0.25 µM in each case.

Consider `C=CC(=O)N1CCN(c2cc3cnc(Nc4ccc(CS(=O)(=O)NC)cc4)nc3n(C)c2=O)c2cccc(O)c21` [Compound 053], for which the GI50 in assay [1] is 0.25 to 0.5 µM; in assay [2], at most 0.25 µM.

In the case of `C=CC(=O)N1CCN(c2cc3cnc(NC)nc3n(-c3ccc(OCCN(C)C)cc3)c2=O)c2cccc(C)c21` [Compound 081, 8-[4-[2-(dimethylamino)ethoxy]phenyl]-2-(methylamino)-6-(5-methyl-4-prop-2-enoyl-2,3-dihydroquinoxalin-1-yl)pyrido[2,3-d]pyrimidin-7-one], the GI50 in assay [1] and in assay [2] was at most 0.25 µM throughout.

As for `C=CC(=O)N1CCN(c2cc3cnc(N)nc3n(-c3cccc(O)c3)c2=O)c2cccc(C)c21` [Compound 098, 2-amino-8-(3-hydroxyphenyl)-6-(5-methyl-4-prop-2-enoyl-2,3-dihydroquinoxalin-1-yl)pyrido[2,3-d]pyrimidin-7-one], the GI50 in assay [1] was 0.5 to 2.5 µM; in assay [2] it was 0.25 to 0.5 µM.

In the case of `C=CC(=O)N1CCN(c2cc3cnc(Nc4ccc(OCCN(C)C)cc4)nc3n(C)c2=O)c2cccc(C)c21` [Compound 033, 2-[4-[2-(dimethylamino)ethoxy]anilino]-8-methyl-6-(5-methyl-4-prop-2-enoyl-2,3-dihydroquinoxalin-1-yl)pyrido[2,3-d]pyrimidin-7-one], the GI50 in assay [1] and in assay [2] was at most 0.25 µM in each case.

As for `C=CC(=O)N1CCN(c2cc3cnc(Nc4ccc(N5CCN(C)CC5)cc4)nc3n(C)c2=O)c2cccc(OC)c21` [Compound 021], the GI50 in assay [1] and in assay [2] was at most 0.25 µM in each case.

In the case of `C=CC(=O)N1CCN(c2cc3cnc(Nc4ccc(OCCN(C)C)cc4)nc3n(-c3cccnc3)c2=O)c2cccc(C)c21` [Compound 067], the GI50 in assay [1] and in assay [2] was at most 0.25 µM throughout.

On to `C=CC(=O)N1CCN(c2cc3cnc(Nc4ccc(N5CCN(C)CC5)cc4)nc3n(C)c2=O)C2(CC2)C1` [Compound 012, 8-methyl-2-[4-(4-methylpiperazin-1-yl)anilino]-6-(7-prop-2-enoyl-4,7-diazaspiro[2.5]octan-4-yl)pyrido[2,3-d]pyrimidin-7-one], for which the GI50 in assay [1] and in assay [2] was at least 2.5 µM each time.

Consider `C=CC(=O)N1CCN(c2cc3cnc(N)nc3n(-c3ccc(OC4COC4)cc3)c2=O)c2cccc(C)c21` [Compound 093, 2-amino-6-(5-methyl-4-prop-2-enoyl-2,3-dihydroquinoxalin-1-yl)-8-[4-(oxetan-3-yloxy)phenyl]pyrido[2,3-d]pyrimidin-7-one], for which the GI50 was 0.25 to 0.5 µM in assay [1] and at most 0.25 µM in assay [2].

Turning to `C=CC(=O)N1CCN(c2cc3cnc(N)nc3n(-c3ccc(N(C)CCOC)cc3)c2=O)c2cccc(C)c21` [Compound 099, 2-amino-8-[4-[2-methoxyethyl(methyl)amino]phenyl]-6-(5-methyl-4-prop-2-enoyl-2,3-dihydroquinoxalin-1-yl)pyrido[2,3-d]pyrimidin-7-one], the GI50 in assay [1] and in assay [2] was at most 0.25 µM in each case.

Consider `C=C(F)C(=O)NC1CCCN(c2cc3cnc(Nc4cnn(CCO)c4)nc3n(C)c2=O)C1` (centres unmarked) [Compound 016, 2-fluoro-N-[1-[2-[[1-(2-hydroxyethyl)pyrazol-4-yl]amino]-8-methyl-7-oxo-pyrido[2,3-d]pyrimidin-6-yl]-3-piperidyl]prop-2-enamide], for which the GI50 in assay [1] and in assay [2] was at least 2.5 µM in each case.

As for `C=CC(=O)N1CCN(c2cc3cnc(Nc4ccc5c(c4)CN(S(C)(=O)=O)CC5)nc3n(C)c2=O)c2cccc(C)c21` [Compound 035], the GI50 in assay [1] and in assay [2] was at most 0.25 µM in each case.

Consider `C=CC(=O)N1CCN(c2cc3cnc(Nc4ccc(OCCN(C)C)cc4)nc3n(C3COC3)c2=O)c2cccc(C)c21` [Compound 060, 2-[4-[2-(dimethylamino)ethoxy]anilino]-6-(5-methyl-4-prop-2-enoyl-2,3-dihydroquinoxalin-1-yl)-8-(oxetan-3-yl)pyrido[2,3-d]pyrimidin-7-one], for which the GI50 in assay [1] is 0.5 to 2.5 µM; in assay [2], 0.25 to 0.5 µM.

`C=CC(=O)N1CCN(c2cc3cnc(Nc4ccccc4)nc3n(C3CC(OC)C3)c2=O)c2cccc(C)c21` (centres unmarked) [Compound 084, 2-anilino-8-(3-methoxycyclobutyl)-6-(5-methyl-4-prop-2-enoyl-2,3-dihydroquinoxalin-1-yl)pyrido[2,3-d]pyrimidin-7-one]: the GI50 in assay [1] and in assay [2] was at most 0.25 µM each time.

Regarding `C=CC(=O)N1CCN(c2c(F)c3cnc(Nc4ccc(N5CCN(C)CC5)cc4)nc3n(C)c2=O)c2c(F)cc(F)c(C)c21` [Compound 059, 6-(6,8-difluoro-5-methyl-4-prop-2-enoyl-2,3-dihydroquinoxalin-1-yl)-5-fluoro-8-methyl-2-[4-(4-methylpiperazin-1-yl)anilino]pyrido[2,3-d]pyrimidin-7-one], the GI50 in assay [1] and in assay [2] was at most 0.25 µM throughout.
